Laboratory results published in patent EP0039085A1, “Process for increasing the solubility of aromatic systems” (Langhals, Heinz, Dr., priority 1980, dated 1981).

Legend:
[1] = Solubility in organic solvents: effect of tert-butyl substitution; format: physicochemical; settings: for Löslichkeitssteigerung um einen Faktor: relative to unsubstituted Rubicen (I)
Text: Der Einfluß der Substitution mit tert.-Butylgruppen wurde an folgenden Systemen untersucht.

[2] = Absolute fluorescence quantum yield; format: physicochemical

Tetra-tert.-butylrubicen
erhöhte die Löslichkeit um einen Faktor ([1]; solvent not restated (preceding sentence: Äthanol und n-Hexan bei Zimmertemperatur), relative to Rubicen): ca. 10

CC(C)(C)c1ccccc1N1C(=O)c2ccc3c4ccc5c6c(ccc(c7ccc(c2c37)C1=O)c64)C(=O)N(c1ccccc1C(C)(C)C)C5=O [Beispiel 3, N,N'-Di-(2-tert.-butyl)-perylen-3,4,9,10-tetracarbonsäure-diimid]
Fluoreszenzquantenausbeute (absolut) η ([2]; Chloroform): 1,0
Fluoreszenzquantenausbeute (absolut) η ([2]; Dimethylformamid (DMF)): 0,94

O=C1c2ccc3c4ccc5c6c(ccc(c7ccc(c2c37)C(=O)N1c1ccccc1)c64)C(=O)N(c1ccccc1)C5=O [III, reference compound]
Löslichkeit ([1]; in organischen Lösungsmitteln): sehr geringe

CC(C)(C)c1ccc(N2C(=O)c3ccc4c5ccc6c7c(ccc(c8ccc(c3c48)C2=O)c75)C(=O)N(c2ccc(C(C)(C)C)cc2)C6=O)cc1 [Beispiel 4, N,N'-Di-(4-tert.-butylphenyl)-perylen-3,4,9,10-tetra-carbonsäurediimid]
Fluoreszenzquantenausbeute (absolut) η ([2]; Dimethylformamid (DMF)): 0,88

Di-tert.-butylrubicen
Löslichkeitssteigerung um einen Faktor ([1]; in n-Hexan bei Zimmertemperatur): ca. 100
Löslichkeitssteigerung um einen Faktor ([1]; in Äthanol bei Zimmertemperatur): ca. 100
